According to patent publication US11614423B2, “Transformed response potentiometric titrations” (UNIVERSITEIT ANTWERPEN, priority 2014, dated 2023):

Experiments:
[1] = Transformed response potentiometric titration of cocaine (ligand) with titrants; format: binding; conditions: for Ka: 1 mM MES buffer pH 7.0, mean of n electrodes
[2] = tested on: Cocaine Binding Aptamer (CBA); test: Transformed response potentiometric titration of different ligands with CBA as titrant (cross-reactivity); conditions: for Ka: Post-EP method, 10^−5 M ligand in 1 mM MES buffer pH 7, CBA as titrant

Row | Molecule | Ka ([1]; Post-EP (PEP) method) [M⁻¹] | Ka [2] [M⁻¹] | further results
1 | 25-mer-DNA: randomly chosen non-specific oligonucleotide, likely SEQ ID NO: 2 (DNA AAAATATCATCTTTGGTGTTTCCTA; DNA, backbone and methylation of C not given here) | 24000 |  | specific interaction with cocaine (in words) ([1]; comparison of titration curves and Ka values): little or no specific interaction
2 | Clc1ccc([B-](c2ccc(Cl)cc2)(c2ccc(Cl)cc2)c2ccc(Cl)cc2)cc1 [TCPB, tetrakis (4-chlorophenyl)borate] | 9e+09 |  | Ka ([1]; Equivalence Point (EP) method): 3e+09 M⁻¹
3 | CN(Cc1cc(Br)cc(Br)c1N)C1CCCCC1 [bromhexine] |  | 570000 | 
4 | CCN(CC)CC(=O)Nc1c(C)cccc1C [lidocaine] |  | 100000 | 
5 | CN1C[C@H](CNC(=O)OCc2ccccc2)C[C@@H]2c3cccc4c3c(cn4C)C[C@H]21 [metergoline] |  | 3.3e+06 | interaction with CBA (in words) ([2]; cross-reactivity compared with cocaine): better interaction with metergoline than with cocaine
6 | CBA: Cocaine Binding Aptamer, sequence SEQ ID NO: 1, 43 bases (DNA ATCTCGGGACGACAGGATTTTCCTCAATGAAGTGGGTCGTCCC; DNA, backbone not given here) |  |  | Kd ([1]; Post-EP method, n=6 electrodes): 1100 nM
7 | CAPBA: Chloramphenicol Binding Aptamer, sequence SEQ ID NO: 3 (nucleic acid, DNA, backbone and methylation of C not given here) DNA: AGCAGCACAGAGGTCAGATGACTTCAGTGAGTTGTCCCACGGTCGGCGAGTCGGTGGTAGCCTATGCGTGCTACCGTGAA | 47000 |  | 
